Source: PubChem BioAssay AID1259407 (Chemical Carcinogenesis Research Information System (CCRIS), 2018)
Calls of active or inactive are those of the source. How the calls were made is not given here.

Tested on: CCRIS mutagenicity, Ames/micronucleus/aberration tests
Assay: CCRIS mutagenicity studies
Details: Test System: AMES SALMONELLA TYPHIMURIUM

SMILES	mutagenic call (Strain/Indicator: TA98, Metabolic Activation: NONE, Method: PREINCUBATION)	mutagenic call (Strain/Indicator: TA98, Metabolic Activation: RAT, LIVER, S-9, KANECHLOR 500, Method: PREINCUBATION)	mutagenic call (Strain/Indicator: TA100, Metabolic Activation: NONE, Method: PREINCUBATION)	mutagenic call (Strain/Indicator: TA100, Metabolic Activation: NONE, Method: STANDARD PLATE)	mutagenic call (Strain/Indicator: TA1535, Metabolic Activation: NONE, Method: STANDARD PLATE)
Nc1cc([N+](=O)[O-])c(-c2ccccc2)c([N+](=O)[O-])c1	inactive; negative	active; positive			
c1ccc(-c2ccc(CCC3CO3)cc2)cc1 (stereo not given)			inactive; negative	active; positive	inactive; negative
